Assay results taken from US7196083B2, “Heteropolycyclic inhibitors of protein kinases” (priority 2000, dated 2007).
Read-outs that look alike come from different tables or passages of the source.

Assays:
U-87 (human glioma) = test: [3H] thymidine uptake cell proliferation assay, U87; type: cell-based
Protocol: Compounds were added to culture at mid-logarithmic growth and incubated for 20 hours. (N=8 for the values+standard errors). […] Cell lines A-549 (human lung carcinoma), B16-F1 (murine melanoma), B16-F10 (murine melanoma), DU-145 (human […] carcinoma), LS-180 (human colon carcinoma), PC3 (human prostate carcinoma), SKOV-3 (human ovarian carcinoma), U-87 (human glioma), and NIH-3T3 (murine embryonic fibroblasts) were all cultured in DMEM supplemented with 10% fetal bovine serum. M3 murine melanoma cells were cultured in DMEM/F12 1:1, and HT-29 human colon carcinoma and LL2 Lewis Lung […] lung carcinoma were cultured in RPMI1640. All the foregoing cell lines were obtained from ATCC. All cells were passaged regularly using 0.25% Trypsin-EDTA in order to maintain cells at exponential growth for various experiments. LS 180 cells were passaged without trypsin and were physically scraped off the culture flasks. In vitro [^3H] thymidine uptake assay. Proliferation can be measured by quantifying the amount of [^3H] thymidine uptake into cells using a β-counter, and therefore is a well-established diagnostic tool to measure DNA synthesis within the cells. […] The cells were allowed to adhere to the plates via incubation at 37° C. in 5% CO2 for 12–14 hours. […] Then, 10 μL of the compound was added to the pre-existing 90 μL per well, and incubated further at 37° C. in 5% CO2 for 20 hours. To measure thymidine incorporation, cells were fixed onto the culture wells by slowly adding ¼^th volume of cold 50% TCA into each well (25 μL to each well) and incubated for 1–2 hours at 4° C. Wells were washed 5 times with tap water to remove any free [^3H] thymidine in the media, and air-dried completely at room temperature. Then, 100 μL of scintillation fluid was added to each well and the activity counted using a Wallac Microbeta Counter.

PKB alpha = target: T1, PKB alpha (Homo sapiens, UniProt P31749); test: Kinase assay in U87 cells using anti PKB alpha antibody; type: cell-based; conditions: U-87 MG, 1 h, after 60 min, read-out: PKB alpha isoform activity, reduction of activity to
T1 construct: endogenous in cells; host or cells: U87 cells
T1 sequence (P31749 whole entry, canonical isoform): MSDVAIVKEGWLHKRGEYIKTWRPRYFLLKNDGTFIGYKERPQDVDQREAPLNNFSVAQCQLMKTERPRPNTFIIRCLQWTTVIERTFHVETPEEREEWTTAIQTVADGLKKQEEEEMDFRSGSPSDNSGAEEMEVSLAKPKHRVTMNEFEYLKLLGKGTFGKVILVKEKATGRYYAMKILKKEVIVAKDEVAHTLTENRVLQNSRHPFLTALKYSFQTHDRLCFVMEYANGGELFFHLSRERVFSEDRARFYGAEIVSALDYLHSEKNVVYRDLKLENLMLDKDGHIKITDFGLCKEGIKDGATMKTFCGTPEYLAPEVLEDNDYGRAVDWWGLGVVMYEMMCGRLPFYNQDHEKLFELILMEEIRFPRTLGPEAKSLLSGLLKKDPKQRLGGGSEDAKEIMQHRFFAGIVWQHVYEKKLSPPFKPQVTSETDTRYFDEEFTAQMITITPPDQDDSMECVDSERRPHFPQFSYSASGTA
Protocol: In preparation for this assay, each cell line was seeded at a density of 3 times 1,000,000 cells per plate onto 150 mm culture dishes and allowed to establish o/n at 37 deg C. A confluency of 50–60% was obtained to ensure maximal drug penetration into each cell. Once the cells were adherent to the culture plates, there were treated with PKB inhibitor KP-23172 for a final conc. of 5 uM. Each culture plate was lysed on ice at specific time intervals using 1% NP-40 lysis buffer containing various protease inhibitors; 10 ug/uL aprotinin, 10 ug/ul leupeptin, 1 ug/ul pepstatin, 1 M beta-glycerophosphate and 100 mM PMSF. The resulting lysates were centrifuged at 15K×g at 4 deg C. for 5 min and then assayed for its protein conc. using Bradford's Reagent and absorbance measurements at 595 nm. Equal amounts of protein were transferred to a new centrifuge tube and treated with anti-PKB-PH antibody (Kinetek #XXP-021), anti-PKBalpha antibody (Signal Transduction #67220), or anti-PKB gamma antibody (UBI 306-607) and incubated end over end at 4 deg C. […] All vials were counted for one minute in the scintillation counter.
A kinase assay in cells was also performed using anti PKB alpha and gamma antibodies in order to determine any inhibition of the isoforms by KP-23172. U87 cells were treated with 5 uM compound, lysed, and the resulting supernatant was analyzed for any changed in PKB activity. […]

[1] = system: LS-180 (human colon carcinoma); test: [3H] thymidine uptake cell proliferation assay, LS180; type: cell-based; conditions: read-out: Cell Proliferation Effects (IC50 (nM))
[2] = system: SKOV-3 (human ovarian carcinoma); test: [3H] thymidine uptake cell proliferation assay, SKOV3; type: cell-based; conditions: SK-OV-3, read-out: Cell Proliferation Effects (IC50 (nM))
[3] = In vivo xenograft model, tumour growth; conditions: 2.5 mg/kg daily i.p. in DMSO, day 15, athymic (Rag2M) female mice; control 100%
Protocol: Mice were inoculated subcutaenously in the rear flank with […] (LS180) and then injected daily with KP-23172 i.p. Tumour measurements were taken daily. A group of 8 athymic (Rag2M) female mice were used as a murine allograft model for the test compound, which was administered in DMSO. 8 control mice received no test compound. Mice were inoculated with tumour cells subcutaneously in the rear flank and then injected with test compound daily intraperitoneally. Tumors were measured and the size calculated, with the objective being a reduction in tumor growth compared to controls. […] Results are illustrated in FIG. 4.

B16-F1 (murine melanoma) = test: [3H] thymidine uptake cell proliferation assay, B16F1; type: cell-based; conditions: Mus musculus, read-out: Cell Proliferation Effects (IC50 (nM))
M3 murine melanoma cells = test: [3H] thymidine uptake cell proliferation assay, M3; type: cell-based; conditions: Mus musculus, read-out: Cell Proliferation Effects (IC50 (nM))
in vivo = conditions: mouse, ip, 2 mg/kg
Protocol: A pharmacokinetics (PK) study was performed on KP-23172 formulated in 20% propylene glycol and 20% hydroxypropyl-B-cyclodextrin, administered intraperitoneally (i.p.) at 2 mg/kg. Plasma samples obtained at various time points were sent to BRI Biopharmaceutical Research Inc., Burnaby, BC, Canada for analysis by Liquid Chromatography/Mass Spectroscopy (LC/MS). Electrospray LC/MS/MS data was acquired in the multiple-reaction-monitoring mode (MRM) in which m/z 225.00>114.20 was monitored for KP-23172 as its [M+H]^+ transition to an ion fragment of m/z 114.2. A mass ion transition of m/z 300.00>165.10 was being monitored for codeine as an internal standard. MRM chromatograms of mouse plasma standard curve samples spiked with 1 and 5000 ng/ml were performed as controls. Plasma calibration standard curves were established based on 1/y linear regression of plasma concentrations of KP-23172 against peak area ratio to the internal standard. The calculated KP-23172 plasma concentrations were based on the assay of 0.05 ml of plasma volume used in the assay and reported as ng/ml concentration. A summary of the KP-23172 plasma concentrations observed in 20 samples from 4 mice is presented in FIG. 2 as a semi-logarithmic plot of the plasma concentrations against blood collection times.

[4] = system: LL2 Lewis Lung human lung carcinoma; test: [3H] thymidine uptake cell proliferation assay, LL2; type: cell-based; conditions: LL/2, read-out: Cell Proliferation Effects (IC50 (nM))

O=C1c2ccccc2-c2nc3nnnn3nc21 [KP-23172]
IC50 (U-87 (human glioma); U-87 MG, U87, read-out: Cell Proliferation Effects (IC50 (nM))): 50 nM
IC50 (U-87 (human glioma); added at mid-logarithmic growth, incubated 20 hours, N=8, read-out: U87 proliferation (thymidine incorporation) IC50, FIG. 1): 50 nM
activity at 5 µM (PKB alpha): 29.6%
IC50 [1]: 80 nM
IC50 [2]: 200 nM
tumor take rate [3]: 62.5%
IC50 (B16-F1 (murine melanoma)): 60 nM
IC50 (M3 murine melanoma cells): 25 nM
concentration at 15 min (in vivo): ~500 ng/mL
concentration at 60 min (in vivo): ~100 ng/mL
half-life (in vivo): about ½
IC50 [4]: 400 nM
